Usually IC50 stands for the concentration that gives 50% inhibition.

Some results are limits rather than exact numbers.

Drawing on patent US20240391948A1, “NOVEL COMPOUND THAT INHIBITS TNF-ALPHA GENERATION AND INFLAMMASOME ACTIVITY AND PREPARATION METHOD THEREFOR” (SHAPERON INC., priority 2021, published 2024), this text covers IC50 for 14 molecules.

Assay [1] relates to U937 cells (human monocytic cell line). The assay is described as follows: Pam2CSK4-induced TNF-α secretion inhibition in PMA-differentiated U937 cells. The format is cell-based. The settings on record: U-937, U937 cells differentiated with PMA, read-out: TNF-α production inhibition grade (IC50). The protocol: (§1) To evaluate anti-inflammatory efficacy, U937 cells (human monocytic cell line) were differentiated into macrophages using PMA (phorbol 12-myristate 13-acetate) and then induced an inflammatory response with Pam2CSK4 (Pam2CysSerLys4) or BzATP (2′(3′)—O-(4-Benzoylbenzoyl)adenosine 5′-triphosphate), the efficacy of taurine-bile acid derivatives in suppressing inflammatory cytokine (IL-1β, TNF-α) production was measured.
(§2) Using PMA, U937 cells were differentiated into macrophages, and the extent of TNF-α secretion inhibition was measured in an experimental group where taurine-bile acid derivatives was treated, followed by induction of inflammatory response with Pam2CSK4, and in the experimental group in which an inflammatory response was induced with BzATP, the extent to which IL-1β secretion among cytokines was suppressed was measured.
(§3) The ability of taurine-bile acid derivatives to inhibit cytokine production was expressed in terms of IC50 (μM) values. The standards for TNF α inhibition ability are A: less than 0.5, B: 0.5 to less than 1.0, C: 1.0 to less than 2.0, D: 2.0 or more, and the IL-1β inhibition ability grade standards are A: less than 0.05, B: 0.05 to less than 0.10, C: 0.10 or more and less than 0.20, D: 0.20 or more.

The test system is the same in assay [2]. The assay is described as follows: BzATP-induced IL-1β secretion inhibition in PMA-differentiated U937 cells. The format is cell-based. Particulars: U-937, U937 cells differentiated with PMA, read-out: IL-1β production inhibition grade (IC50). The method, then:
as §1, §2, §3

On to `C[C@H](CCC(=O)NC1(CS(=O)(=O)O)CC1)[C@H]1CC[C@H]2[C@@H]3CC[C@@H]4CC(=O)CC[C@]4(C)[C@H]3CC[C@]12C` [NC30032], for which the IC50 in assay [1] is 500 to 1000 nM; in assay [2] it was at least 200 nM.

On to `CC(C)N(CCS(=O)(=O)O)C(=O)CC[C@@H](C)[C@H]1CC[C@H]2[C@@H]3CC[C@@H]4CC(=O)CC[C@]4(C)[C@H]3CC[C@]12C` [NC30007], for which the IC50 was under 500 nM in assay [1] and at least 200 nM in assay [2].

Regarding `C[C@H](CCC(=O)N(CCS(=O)(=O)O)Cc1cccnc1)[C@H]1CC[C@H]2[C@@H]3CC[C@@H]4C[C@H](O)CC[C@]4(C)[C@H]3CC[C@]12C` [NC10092], the IC50 in assay [1] is at least 2000 nM; in assay [2], 50 to 100 nM.

`CC[C@H]1[C@@H](O)[C@@H]2[C@H](CC[C@]3(C)[C@@H]([C@H](C)CCC(=O)NCCCO)CC[C@@H]23)[C@@]2(C)CC[C@@H](O)C[C@@H]12` [NC40003]: the IC50 was at least 2000 nM in assay [1] and at least 200 nM in assay [2].

Regarding `CC[C@H]1[C@@H](O)[C@@H]2[C@H](C[C@H](O)[C@]3(C)[C@@H]([C@H](C)CCC(=O)NC[C@@H](C)S(=O)(=O)O)CC[C@@H]23)[C@@]2(C)CC[C@@H](O)C[C@@H]12` [NC50023], the IC50 is at least 2000 nM in assay [1] and at least 200 nM in assay [2].

For `CC[C@H]1[C@@H](O)[C@@H]2[C@H](C[C@H](O)[C@]3(C)[C@@H]([C@H](C)CCC(=O)N(CCS(=O)(=O)O)Cc4ccccc4)CC[C@@H]23)[C@@]2(C)CC[C@@H](O)C[C@@H]12` [NC50005], the IC50 in assay [1] is 1000 to 2000 nM; in assay [2] it was at least 200 nM.

`CC[C@H]1[C@@H](O)[C@@H]2[C@H](C[C@H](O)[C@]3(C)[C@@H]([C@H](C)CCC(=O)NCCC(=O)O)CC[C@@H]23)[C@@]2(C)CC[C@@H](O)C[C@@H]12` [NC50002]: the IC50 in assay [1] is at least 2000 nM; in assay [2], at least 200 nM.

With `CC[C@H]1[C@@H](O)[C@@H]2[C@H](C[C@H](O)[C@]3(C)[C@@H]([C@H](C)CCC(=O)N[C@@H](CS(=O)(=O)O)C(C)C)CC[C@@H]23)[C@@]2(C)CC[C@@H](O)C[C@@H]12` [NC50017], the IC50 in assay [1] lay in the range of 1000 to 2000 nM; in assay [2], 50 to 100 nM.

On to `C[C@H](CCC(=O)N(CCS(=O)(=O)O)Cc1cccnc1)[C@H]1CC[C@H]2[C@@H]3CC[C@@H]4CC(=O)CC[C@]4(C)[C@H]3CC[C@]12C` [NC30036], for which the IC50 was 1000 to 2000 nM in assay [1] and at least 200 nM in assay [2].

In the case of `C[C@H](CCC(=O)N1CCC[C@H]1CS(=O)(=O)O)[C@H]1CC[C@H]2[C@@H]3CC[C@@H]4CC(=O)CC[C@]4(C)[C@H]3CC[C@]12C` [NC30021], the IC50 in assay [1] lay within 500 to 1000 nM; in assay [2], 50 to 100 nM.

`CC[C@H]1[C@@H](O)[C@@H]2[C@H](C[C@H](O)[C@]3(C)[C@@H]([C@H](C)CCC(=O)N[C@@H](Cc4ccccc4)CS(=O)(=O)O)CC[C@@H]23)[C@@]2(C)CC[C@@H](O)C[C@@H]12` [NC50014]: the 50% inhibitory concentration (IC50) in assay [1] is 500 to 1000 nM; in assay [2] it was under 50 nM.

In the case of `CC[C@H]1[C@@H](O)[C@@H]2[C@H](CC[C@]3(C)[C@@H]([C@H](C)CCC(=O)N[C@@H]4CCCC[C@@H]4S(=O)(=O)O)CC[C@@H]23)[C@@]2(C)CC[C@@H](O)C[C@@H]12` [NC40026], the IC50 in assay [1] is 500 to 1000 nM; in assay [2] it was 50 to 100 nM.

Take `CC[C@H]1[C@@H](O)[C@@H]2[C@H](C[C@H](O)[C@]3(C)[C@@H]([C@H](C)CCC(=O)N4CCC(S(=O)(=O)O)CC4)CC[C@@H]23)[C@@]2(C)CC[C@@H](O)C[C@@H]12` [NC50011]: the IC50 is at least 2000 nM in assay [1] and at least 200 nM in assay [2].

As for `C[C@H](CCC(=O)N(CCS(=O)(=O)O)Cc1ccccc1)[C@H]1CC[C@H]2[C@@H]3CC[C@@H]4CC(=O)CC[C@]4(C)[C@H]3CC[C@]12C` [NC30005], the IC50 is 500 to 1000 nM in assay [1] and at least 200 nM in assay [2].
